Earlier results as cited in patent US20090022706A1, “SUBSTITUTED CYCLOHEXENES” (Auspex Pharmaceuticals, Inc., priority 2007, published 2009).

Tests used:
[1] = test system: Toll-Like Receptor 4 (TLR4)-mediated cytokine production; conditions: under pro-inflammatory conditions
[2] = test system: nitric oxide (NO) production

production of various cytokines, such as IL-1β, IL-6, IL-12, and TNF-α [1]: inhibits
SMILES: CCOC(=O)C1=CCCC[C@H]1S(=O)(=O)Nc1ccc(F)cc1Cl [TAK-242, (R)-6-(2-chloro-4-fluoro-phenylsulfamoyl)-cyclohex-1-enecarboxylic acid ethyl ester]
in vitro production of nitric oxide (NO) [2]: inhibits
